Consider 27 compounds from US8664203B2, “Thiazole derivatives and their use as P2Y12 receptor antagonists” (Actelion Pharmaceuticals Ltd., priority 2009, dated 2014).

Structures can show the parent of a compound that is named as a salt.

In general, IC50 refers to the concentration at which inhibition is half-maximal.

The target of this experiment is T1, human P2Y12 receptor (Homo sapiens, UniProt Q9H244).
T1 construct: expressed in transfected cells; host or cells: CHO cells
T1 sequence (Q9H244 whole entry): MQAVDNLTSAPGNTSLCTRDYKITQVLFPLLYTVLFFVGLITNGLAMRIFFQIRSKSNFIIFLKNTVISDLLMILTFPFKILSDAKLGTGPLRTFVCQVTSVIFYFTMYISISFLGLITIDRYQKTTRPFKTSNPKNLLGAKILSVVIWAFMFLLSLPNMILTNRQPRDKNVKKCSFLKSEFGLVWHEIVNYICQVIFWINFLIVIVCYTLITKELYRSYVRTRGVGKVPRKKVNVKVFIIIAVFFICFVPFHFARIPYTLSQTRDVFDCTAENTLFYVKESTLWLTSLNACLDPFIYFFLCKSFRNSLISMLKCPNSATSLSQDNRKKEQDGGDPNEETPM
Kind of experiment: P2Y12 receptor binding assay. The following applies: CHO cells with recombinant expression of the human P2Y12 receptor; tritium-labeled 2-methyl-S-ADP; RT, 2 hours. How it is done: P2Y12 Receptor Binding Assay
Chinese Hamster Ovary (CHO) cells with recombinant expression of the human P2Y12 receptor were cultured in 24 well cell-culture plates. Cells were washed three times with binding buffer (50 mM Tris pH 7.4, 100 mM NaCl, 1 mM EDTA, 0.5% BSA). The cells were then incubated with 0.5 ml per well binding buffer containing tritium-labeled 2-methyl-thio-adenosine 5′-diphosphate (2-methyl-S-ADP) (between 100′000 and 300′000 dpm per well) and various concentrations of test compounds. After incubation at RT for 2 hours, cells were washed three times with binding buffer. Then, cells were solubilized by addition of 0.5 ml solubilization buffer (SDS, NaOH, EDTA). The content of each well was then transferred into beta-counter vials and 2.0 ml of Ultima Gold Scintillation liquid was added.
On to `CCCCOC(=O)N1CCN(C(=O)[C@H](CP(=O)(OCC)OCC)NC(=O)c2nc(-c3ccccc3)sc2N(C)CCCC)CC1` [Example 46, 4-[(R)-2-{[5-(Butyl-methyl-amino)-2-phenyl-thiazole-4-carbonyl]-amino}-3-(diethoxy-phosphoryl)-propionyl]-piperazine-1-carboxylic acid butyl ester], for which the IC50 was found to be 821 nM.

`CCCCOC(=O)N1CCN(C(=O)CNC(=O)c2nc(-c3ccccc3)c(/C=C/C(=O)OCC)s2)CC1` [Example 53, 4-(2-{[5-((E)-2-Ethoxycarbonyl-vinyl)-4-phenyl-thiazole-2-carbonyl]-amino}-acetyl)-piperazine-1-carboxylic acid butyl ester]: the IC50 came out at 513 nM.

As for `CCCCOC(=O)N1CCN(C(=O)[C@H](CP(=O)(O)O)NC(=O)c2csc(-c3ccc(F)cc3)n2)CC1` [Example 41, 4-((R)-2-{[2-(4-Fluoro-phenyl)-thiazole-4-carbonyl]-amino}-3-phosphono-propionyl)-piperazine-1-carboxylic acid butyl ester], the IC50 amounted to 6 nM.

Regarding `CCCCOC(=O)N1CCN(C(=O)CNC(=O)c2nc(-c3ccccc3)sc2NCCC(=O)O)CC1` [Example 61, 4-(2-{[5-(2-Carboxy-ethylamino)-2-phenyl-thiazole-4-carbonyl]-amino}-acetyl)-piperazine-1-carboxylic acid butyl ester], the IC50 was 71 nM.

In the case of `CCCCOC(=O)N1CCN(C(=O)[C@H](CP(=O)(OCC)OCC)NC(=O)c2csc(-c3ccccc3)n2)CC1` [Example 8, 4-{(R)-3-(Diethoxy-phosphoryl)-2-[(2-phenyl-thiazole-4-carbonyl)-amino]-propionyl}-piperazine-1-carboxylic acid butyl ester], the IC50 turned out to be 502 nM.

For `CCCCOC(=O)N1CCN(C(=O)[C@H](CCC(=O)O)NC(=O)c2nc(-c3ccccc3)sc2-c2ccccc2)CC1` [Example 17, 4-{(S)-4-Carboxy-2-[(2,5-diphenyl-thiazole-4-carbonyl)-amino]-butyryl}-piperazine-1-carboxylic acid butyl ester], the IC50 was 43 nM.

Take `CCCCOC(=O)N1CCN(C(=O)[C@H](Cc2ccc(P(=O)(OCC)OCC)cc2)NC(=O)c2csc(-c3ccccc3)n2)CC1` [Example 10, 4-{(S)-3-[4-(Diethoxy-phosphoryl)-phenyl]-2-[(2-phenyl-thiazole-4-carbonyl)-amino]-propionyl}-piperazine-1-carboxylic acid butyl ester]: the IC50 was found to be 635 nM.

As to `CCOC(=O)N1CCN(C(=O)CNC(=O)c2csc(-c3ccccc3)n2)CC1` [Example 1, 4-{2-[(2-Phenyl-thiazole-4-carbonyl)-amino]-acetyl}-piperazine-1-carboxylic acid ethyl ester], the IC50 amounted to 9150 nM.

Turning to `CCCCOC(=O)N1CCN(C(=O)[C@H](CO)NC(=O)c2nc(-c3ccccc3)sc2/C=C/C(=O)O)CC1` [Example 39, 4-((S)-2-{[5-((E)-2-Carboxy-vinyl)-2-phenyl-thiazole-4-carbonyl]-amino}-3-hydroxy-propionyl)-piperazine-1-carboxylic acid butyl ester], the IC50 is 35 nM.

Regarding `CCCCOC(=O)N1CCN(C(=O)[C@H](CP(=O)(OCOC(C)=O)OCOC(C)=O)NC(=O)c2csc(-c3ccccc3)n2)CC1` [Example 57, 4-{(R)-3-[Bis-(acetoxymethoxy)-phosphoryl]-2-[(2-phenyl-thiazole-4-carbonyl)-amino]-propionyl}-piperazine-1-carboxylic acid butyl ester], the half-maximal inhibitory concentration (IC50) was 5 nM.

Take `CCCCOC(=O)N1CCN(C(=O)[C@H](CCC(=O)O)NC(=O)c2nc(-c3ccccc3)sc2CCC(=O)O)CC1` [Example 20, 4-((S)-4-Carboxy-2-{[5-(2-carboxy-ethyl)-2-phenyl-thiazole-4-carbonyl]-amino}-butyryl)-piperazine-1-carboxylic acid butyl ester]: the IC50 came out at 13 nM.

With `CCCCOC(=O)N1CCN(C(=O)[C@H](CP(=O)(N[C@@H](C)C(=O)OCC)N[C@@H](C)C(=O)OCC)NC(=O)c2csc(-c3ccccc3)n2)CC1` [Example 58, N,N′-Bis-((S)-1-Ethoxycarbonylethyl)-(R)-2-[(2-phenyl-thiazole-4-carbonyl)-amino]-3-oxo-3-(4-butoxy-carbonyl-piperazin-1-yl)-propyl-phosphonic acid diamide], the IC50 came out at 1220 nM.

In the case of `CCCCOC(=O)N1CCN(C(=O)CNC(=O)c2nc(-c3ccccc3)sc2/C=C/C(=O)O)CC1` [Example 31, 4-(2-{[5-((E)-2-Carboxy-vinyl)-2-phenyl-thiazole-4-carbonyl]-amino}-acetyl)-piperazine-1-carboxylic acid butyl ester], the IC50 is 19 nM.

On to `CCCCOC(=O)N1CCN(C(=O)[C@H](CCC(=O)O)NC(=O)c2csc(-c3ccccc3Oc3ccccc3)n2)CC1` [Example 3, 4-((S)-4-Carboxy-2-{[2-(2-phenoxy-phenyl)-thiazole-4-carbonyl]-amino}-butyryl)-piperazine-1-carboxylic acid butyl ester], for which the IC50 is 1470 nM.

Turning to `CCCCOC(=O)N1CCN(C(=O)[C@H](CP(=O)(OCC)OCC)NC(=O)c2nc(-c3ccccc3)sc2-c2ccccc2)CC1` [Example 42, 4-{(R)-3-(Diethoxy-phosphoryl)-2-[(2,5-diphenyl-thiazole-4-carbonyl)-amino]-propionyl}-piperazine-1-carboxylic acid butyl ester], the IC50 came out at 2190 nM.

Turning to `CCCCOC(=O)N1CCN(C(=O)[C@H](CP(=O)(O)O)NC(=O)c2nc(-c3ccccc3)sc2-c2ccccc2)CC1` [Example 43, 4-{(R)-2-[(2,5-Diphenyl-thiazole-4-carbonyl)-amino]-3-phosphono-propionyl}-piperazine-1-carboxylic acid butyl ester], the IC50 is 13 nM.

In the case of `CCCCOC(=O)N1CCN(C(=O)[C@H](CP(=O)(O)O)NC(=O)c2nc(-c3ccccc3)sc2N2CCN(C)CC2)CC1` [Example 45, 4-((R)-2-{[5-(4-Methyl-piperazin-1-yl)-2-phenyl-thiazole-4-carbonyl]-amino}-3-phosphono-propionyl)-piperazine-1-carboxylic acid butyl ester; hydrochloride], the IC50 came out at 3 nM.

On to `CCOC(=O)N1CCN(C(=O)[C@H](Cc2ccc(P(=O)(OCC)OCC)cc2)NC(=O)c2csc(-c3ccccc3)n2)CC1` [Example 12, 4-{(S)-3-[4-(Diethoxy-phosphoryl)-phenyl]-2-[(2-phenyl-thiazole-4-carbonyl)-amino]-propionyl}-piperazine-1-carboxylic acid ethyl ester], for which the IC50 came to 4940 nM.

`CCCCOC(=O)N1CCN(C(=O)[C@H](CO)NC(=O)c2nc(-c3ccccc3)sc2CCC(=O)O)CC1` [Example 40, 4-((S)-2-{[5-(2-Carboxy-ethyl)-2-phenyl-thiazole-4-carbonyl]-amino}-3-hydroxy-propionyl)-piperazine-1-carboxylic acid butyl ester]: the IC50 amounted to 43 nM.

Consider `CCCCOC(=O)N1CCN(C(=O)CNC(=O)c2nc(-c3ccccc3)sc2-c2cccc(F)c2)CC1` [Example 29, 4-(2-{[5-(3-Fluoro-phenyl)-2-phenyl-thiazole-4-carbonyl]-amino}-acetyl)-piperazine-1-carboxylic acid butyl ester], for which the IC50 was determined as 525 nM.

As to `CCCCOC(=O)N1CCN(C(=O)[C@H](CP(=O)(OCOC(=O)OCC)OCOC(=O)OCC)NC(=O)c2csc(-c3ccccc3)n2)CC1` [Example 59, 4-{(R)-3-[Bis-(ethoxycarbonyloxymethoxy)-phosphoryl]-2-[(2-phenyl-thiazole-4-carbonyl)-amino]-propionyl}-piperazine-1-carboxylic acid butyl ester], the IC50 is 15 nM.

For `CCCCOC(=O)N1CCN(C(=O)[C@H](CO)NC(=O)c2csc(-c3ccccc3)n2)CC1` [Example 38, 4-{(S)-3-Hydroxy-2-[(2-phenyl-thiazole-4-carbonyl)-amino]-propionyl}-piperazine-1-carboxylic acid butyl ester], the 50% inhibitory concentration (IC50) amounted to 71 nM.

With `CCCCOC(=O)N1CCN(C(=O)CNC(=O)c2nc(-c3ccccc3)c(CCC(=O)OC)s2)CC1` [Example 54, 4-(2-{[5-(2-Methoxycarbonyl-ethyl)-4-phenyl-thiazole-2-carbonyl]-amino}-acetyl)-piperazine-1-carboxylic acid butyl ester], the IC50 stood at 547 nM.

As to `CCCCOC(=O)N1CCN(C(=O)[C@H](CCC(=O)O)NC(=O)c2csc(-c3cccc(OC)c3)n2)CC1` [Example 4, 4-((S)-4-Carboxy-2-{[2-(3-methoxy-phenyl)-thiazole-4-carbonyl]-amino}-butyryl)-piperazine-1-carboxylic acid butyl ester], the IC50 was 249 nM.

With `CCCCOC(=O)N1CCN(C(=O)[C@H](CCC(=O)O)NC(=O)c2nc(-c3ccccc3)sc2Cl)CC1` [Example 16, 4-{(S)-4-Carboxy-2-[(5-chloro-2-phenyl-thiazole-4-carbonyl)-amino]-butyryl}-piperazine-1-carboxylic acid butyl ester], the IC50 is 7 nM.

Consider `CCCCOC(=O)N1CCN(C(=O)CNC(=O)c2nc(-c3ccccc3)sc2NCCCO)CC1` [Example 27, 4-(2-{[5-(3-Hydroxy-propylamino)-2-phenyl-thiazole-4-carbonyl]-amino}-acetyl)-piperazine-1-carboxylic acid butyl ester], for which the IC50 turned out to be 34 nM.

As to `CCCCOC(=O)N1CCN(C(=O)CNC(=O)c2nc(-c3ccccc3)c(CCC(=O)O)s2)CC1` [Example 55, 4-(2-{[5-(2-Carboxy-ethyl)-4-phenyl-thiazole-2-carbonyl]-amino}-acetyl)-piperazine-1-carboxylic acid butyl ester], the concentration for half-maximal inhibition (IC50) stood at 314 nM.
